From ChEMBL document CHEMBL1828571, “Discovery of novel selective norepinephrine inhibitors: 1-(2-morpholin-2-ylethyl)-3-aryl-1,3-dihydro-2,1,3-benzothiadiazole 2,2-dioxides (WYE-114152)” (J Med Chem, 2011)
pIC50: −log10 of the molar value. One block for each compound: values may come before it. Calls of active or inactive are those of the source.

Tests used:
[1] = target: T1, Sodium-dependent serotonin transporter (Homo sapiens, UniProt P31645); experiment: Inhibition of human SERT expressed in JAR cells assessed as serotonin uptake at 6 uM; type: cell-based
Target sequence in this assay (P31645 whole entry, looked up): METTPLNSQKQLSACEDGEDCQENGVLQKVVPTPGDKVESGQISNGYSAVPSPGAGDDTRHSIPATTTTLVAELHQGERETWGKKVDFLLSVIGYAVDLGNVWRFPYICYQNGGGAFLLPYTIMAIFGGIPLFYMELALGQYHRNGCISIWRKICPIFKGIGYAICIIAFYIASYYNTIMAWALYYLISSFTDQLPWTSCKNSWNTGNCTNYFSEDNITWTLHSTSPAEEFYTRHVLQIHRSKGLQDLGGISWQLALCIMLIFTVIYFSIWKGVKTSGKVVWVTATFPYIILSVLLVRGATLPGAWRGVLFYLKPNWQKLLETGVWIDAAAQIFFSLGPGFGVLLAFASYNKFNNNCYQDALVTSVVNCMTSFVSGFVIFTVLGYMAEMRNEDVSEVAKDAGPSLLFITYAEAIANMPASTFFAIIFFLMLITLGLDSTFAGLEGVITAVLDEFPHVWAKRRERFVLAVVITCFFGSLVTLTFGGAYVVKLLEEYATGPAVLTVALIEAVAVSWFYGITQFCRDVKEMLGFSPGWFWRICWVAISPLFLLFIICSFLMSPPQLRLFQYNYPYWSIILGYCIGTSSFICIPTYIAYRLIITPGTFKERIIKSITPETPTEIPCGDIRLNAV

[2] = target: T2, Sodium-dependent noradrenaline transporter (Homo sapiens, UniProt P23975); experiment: biochemical
[3] = target: T3, Sodium-dependent dopamine transporter (Homo sapiens, UniProt Q01959); experiment: biochemical
[4] = target: T3, Sodium-dependent dopamine transporter; experiment: Displacement of [3H]-WIN-35428 from human DAT expressed in CHO cells at 1 uM; type: cell-based
[5] = target: T1, Sodium-dependent serotonin transporter; type: cell-based, JAR
Target sequence in this assay (P31645 whole entry): as the sequence (P31645 whole entry, looked up) above

[6] = target: T2, Sodium-dependent noradrenaline transporter
Rattus norvegicus [7] = experiment: Analgesic activity in Sprague-Dawley rat thermally-stimulated acute pain model assessed as increase in latency to nocicfensive response at 30 mg/kg, po after 1 to 5 hrs by hot plate assay; type: functional, organism-based; parameters: dose 30 mg/kg
Rattus norvegicus [8] = experiment: Analgesic activity in Sprague-Dawley rat thermally-stimulated acute pain model assessed as increase in latency to nocicfensive response at 10 mg/kg, po after 1 to 5 hrs by hot plate assay; type: functional, organism-based; parameters: dose 10 mg/kg
Rattus norvegicus [9] = experiment: Analgesic activity against carrageenan-induced hyperalgesia in Sprague-Dawley rat assessed as increase in paw withdrawal latency at 10 mg/kg, po after 4 hrs carrageenan challenge; type: functional, organism-based; parameters: dose 10 mg/kg
Rattus norvegicus [10] = experiment: Analgesic activity against carrageenan-induced hyperalgesia in Sprague-Dawley rat assessed as increase in paw withdrawal latency at 30 mg/kg, po after 4 hrs carrageenan challenge; type: functional, organism-based; parameters: dose 30 mg/kg
Rattus norvegicus [11] = experiment: Analgesic activity against FCA-induced mechanical hyperalgesia in Sprague-Dawley rat assessed as threshold to paw withdrawal at 3 mg/kg, po administered 24 hrs after FCA challenge measured after 3 hrs; type: functional, organism-based; parameters: dose 3 mg/kg
Rattus norvegicus [12] = experiment: Analgesic activity against FCA-induced mechanical hyperalgesia in Sprague-Dawley rat assessed as threshold to paw withdrawal at 3 mg/kg, po administered 24 hrs after FCA challenge measured after 5 hrs; type: functional, organism-based; parameters: dose 3 mg/kg
Rattus norvegicus [13] = experiment: Analgesic activity against spinal nerve ligation-induced mechanical hyperalgesia in po dosed Sprague-Dawley rat assessed as threshold to paw withdrawal; type: functional, organism-based
[14] = Plasma clearance in rat at 2 mg/kg, iv; type: ADME, organism-based; parameters: dose 2 mg/kg, route intravenous
[15] = Volume of distribution at steady state in rat at 2 mg/kg, iv; type: ADME, organism-based; parameters: dose 2 mg/kg, route intravenous; settings: in vivo, read-out: Vdss
[16] = Cmax in rat at 10 mg/kg, po; type: ADME, organism-based; parameters: dose 10 mg/kg, route oral; settings: in vivo
[17] = Tmax in rat at 10 mg/kg, po; type: ADME, organism-based; parameters: dose 10 mg/kg, route oral; settings: in vivo
[18] = Half life in rat at 2 mg/kg, iv; type: ADME, organism-based; parameters: dose 2 mg/kg, route intravenous; settings: in vivo
[19] = Half life in rat at 10 mg/kg, po; type: ADME, organism-based; parameters: dose 10 mg/kg, route oral; settings: in vivo
[20] = AUC (0 to infinity) in rat at 2 mg/kg, iv; type: ADME, organism-based; parameters: time infinity, dose 2 mg/kg, route intravenous; settings: plasma
[21] = AUC (0 to infinity) in rat at 10 mg/kg, po; type: ADME, organism-based; parameters: time infinity, dose 10 mg/kg, route oral; settings: plasma
[22] = Oral bioavailability in rat at 10 mg/kg; type: ADME, organism-based; settings: in vivo
[23] = Ratio of drug level in brain to plasma in rat; type: ADME; settings: read-out: BPR
Rattus norvegicus [24] = experiment: Increase of norepinephrine level in Sprague-Dawley rat medial prefrontal cortex at 30 mg/kg, po by microdialysis assay relative to baseline; type: functional
Rattus norvegicus [25] = experiment: Increase of serotonin level in Sprague-Dawley rat medial prefrontal cortex at 30 mg/kg, po by microdialysis assay; type: functional, organism-based; parameters: dose 30 mg/kg
Homo sapiens [26] = species on record: Homo sapiens; experiment: Selectivity ratio of IC50 for human NET over IC50 for human SERT
Homo sapiens [27] = species on record: Homo sapiens; experiment: Selectivity ratio of IC50 for human NET over IC50 for human DAT

T3 sequence (Q01959 whole entry): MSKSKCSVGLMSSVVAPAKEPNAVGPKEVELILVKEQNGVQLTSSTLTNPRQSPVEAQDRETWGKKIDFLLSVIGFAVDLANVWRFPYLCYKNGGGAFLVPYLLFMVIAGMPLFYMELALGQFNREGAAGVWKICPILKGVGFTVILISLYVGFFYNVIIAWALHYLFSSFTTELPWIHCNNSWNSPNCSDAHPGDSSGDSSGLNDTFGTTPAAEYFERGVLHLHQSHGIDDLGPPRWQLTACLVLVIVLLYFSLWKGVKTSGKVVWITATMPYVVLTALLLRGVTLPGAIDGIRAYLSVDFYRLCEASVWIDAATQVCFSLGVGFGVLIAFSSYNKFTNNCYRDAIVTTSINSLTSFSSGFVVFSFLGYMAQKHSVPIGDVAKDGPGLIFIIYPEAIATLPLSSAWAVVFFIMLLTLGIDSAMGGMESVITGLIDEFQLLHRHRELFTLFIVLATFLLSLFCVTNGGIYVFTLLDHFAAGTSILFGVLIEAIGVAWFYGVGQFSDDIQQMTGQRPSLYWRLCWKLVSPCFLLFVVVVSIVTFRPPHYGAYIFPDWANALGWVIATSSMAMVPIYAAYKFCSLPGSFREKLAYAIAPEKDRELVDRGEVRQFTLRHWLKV
T2 sequence (P23975 whole entry): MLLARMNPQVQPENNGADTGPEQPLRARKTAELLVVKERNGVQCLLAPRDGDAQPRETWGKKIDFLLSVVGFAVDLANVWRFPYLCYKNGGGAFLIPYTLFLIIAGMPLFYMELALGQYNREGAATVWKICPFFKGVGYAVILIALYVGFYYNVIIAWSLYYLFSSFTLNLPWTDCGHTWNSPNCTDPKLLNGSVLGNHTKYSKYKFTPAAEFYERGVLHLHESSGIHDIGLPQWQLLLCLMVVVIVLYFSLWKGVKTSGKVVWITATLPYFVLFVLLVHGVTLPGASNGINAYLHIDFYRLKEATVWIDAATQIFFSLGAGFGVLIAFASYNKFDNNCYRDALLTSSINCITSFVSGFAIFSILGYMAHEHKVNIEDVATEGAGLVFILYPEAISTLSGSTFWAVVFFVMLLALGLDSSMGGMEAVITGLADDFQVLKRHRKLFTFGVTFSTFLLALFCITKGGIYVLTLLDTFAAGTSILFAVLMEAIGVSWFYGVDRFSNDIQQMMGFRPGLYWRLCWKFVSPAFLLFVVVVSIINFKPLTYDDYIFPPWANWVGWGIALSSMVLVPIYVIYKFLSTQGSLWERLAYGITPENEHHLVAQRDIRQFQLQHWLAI

- inhibition [1]: 52%
- pIC50 [2]: 6.99
- pIC50 [3]: 5.99
SMILES: CNC[C@H](CCN1c2ccccc2N(c2ccccc2)S1(=O)=O)OC

- pIC50 [3]: 6.10
SMILES: O=S1(=O)N(C[C@@H]2CNCCO2)c2ccccc2N1c1ccccc1

- inhibition [4]: 77%
- pIC50 [2]: 5.64
SMILES: CN1CCOC(CN2c3ccccc3N(c3ccccc3)S2(=O)=O)C1 (racemic)

- pIC50 [5]: 6.00
- inhibition [4]: 50%
- pIC50 [6]: 7.66
- pIC50 [2]: 8.30
SMILES: O=S1(=O)N(CCC2CNCCO2)c2c(F)cccc2N1c1ccccc1F (configuration not stated)

- pIC50 [5]: 6.09
- inhibition [4]: 23%
- pIC50 [6]: 6.92
- pIC50 [2]: 6.68
SMILES: O=S1(=O)N(CCC2CNCCO2)c2ccc(F)cc2N1c1ccccc1F (configuration not stated)

- pIC50 [5]: 5.85
- pIC50 [2]: 7.10
SMILES: O=S1(=O)N(CC[C@@H]2CNCCO2)c2ccccc2N1c1c(F)cc(F)cc1F

- pIC50 [5]: 6.13
- pIC50 [2]: 7.00
SMILES: COc1cccc(N2c3ccccc3N(CC[C@@H]3CNCCO3)S2(=O)=O)c1

- pIC50 [5]: 5.19
- clearance [14]: 2.28 L/h/kg
- Vd [15]: 5 L/kg
- Cmax [16]: 0.373 µg/mL
- Tmax [17]: 1 h
- half-life [18]: 1.8 h
- half-life [19]: 1.8 h
- AUC(0-inf) [20]: 0.958 µg·h/mL
- AUC(0-inf) [21]: 1.32 µg·h/mL
- bioavailability [22]: 28%
- Kp [23]: 3.9
- Ratio IC50 (Homo sapiens [26]): > 430
- Ratio IC50 (Homo sapiens [27]): > 548
- pIC50 [6]: 7.82
- pIC50 [2]: 8.30
SMILES: O=S1(=O)N(CC[C@@H]2CNCCO2)c2ccccc2N1c1ccccc1F
- Activity (Rattus norvegicus [7]): Active
- Activity (Rattus norvegicus [8]): Active
- Activity (Rattus norvegicus [9]): Active
- Activity (Rattus norvegicus [10]): Active
- Activity (Rattus norvegicus [11]): Active
- Activity (Rattus norvegicus [12]): Active
- Activity (Rattus norvegicus [13]): Dose-dependent effect
- Activity (Rattus norvegicus [24]): 390%
- Activity (Rattus norvegicus [25]): inactive

- pIC50 [5]: 5.24
- inhibition [4]: 20%
- pIC50 [6]: 8.15
- pIC50 [2]: 7.89
SMILES: O=S1(=O)N(CCC2CNCCO2)c2cccc(F)c2N1c1ccccc1F (configuration not stated)

- pIC50 [5]: 5.08
- inhibition [4]: 43%
- pIC50 [6]: 7.85
- pIC50 [2]: 8.10
SMILES: O=S1(=O)N(CCC2CNCCO2)c2cc(F)ccc2N1c1ccccc1F (configuration not stated)

SMILES: O=S1(=O)N(CC2CNCCO2)c2ccccc2N1c1ccccc1 (racemic)
- inhibition [1]: 0%
- inhibition [4]: 32%
- pIC50 [6]: 6.83
- pIC50 [2]: 7.13

- pIC50 [2]: 6.55
- pIC50 [3]: 6.68
SMILES: O=S1(=O)N(CC[C@@H]2CNCCO2)c2ccccc2N1c1ccc(F)cc1

- pIC50 [5]: 5.38
- pIC50 [2]: 6.84
- pIC50 [3]: 5.69
SMILES: O=S1(=O)N(CC[C@@H]2CNCCO2)c2ccccc2N1c1ccc(F)cc1F

- pIC50 [5]: 5.53
- inhibition [4]: 95%
- pIC50 [6]: 7.27
- pIC50 [2]: 7.52
SMILES: O=S1(=O)N(CCC2CCCNC2)c2ccccc2N1c1ccccc1 (racemic)

- inhibition [1]: 28%
SMILES: CNC[C@H](O)CCN1c2ccccc2N(c2ccccc2F)S1(=O)=O

- pIC50 [5]: 5.29
- inhibition [4]: 39%
- pIC50 [2]: 7.89
SMILES: CNC[C@@H](CCN1c2ccccc2N(c2ccccc2)S1(=O)=O)OC

SMILES: O=S1(=O)N(CC[C@H]2CNCCO2)c2ccccc2N1c1ccccc1
- pIC50 [5]: 5.99
- inhibition [1]: 68%
- pIC50 [2]: 8.05

- pIC50 [3]: 6.47
SMILES: O=S1(=O)N(C[C@H]2CNCCO2)c2ccccc2N1c1ccccc1

SMILES: O=S1(=O)N(CC[C@@H]2CNCCO2)c2ccccc2N1c1ccccc1
- pIC50 [5]: 5.17
- inhibition [1]: 55%
- pIC50 [2]: 8.30

- pIC50 [5]: 5.75
- pIC50 [2]: 8.15
- pIC50 [3]: 6.02
SMILES: O=S1(=O)N(CCC2CNCCO2)c2ccccc2N1c1ccccc1 (racemic)
